The experiment addresses T1, PD brain-derived a-syn aggregates (Homo sapiens, UniProt P37840).
T1 construct: from tissue; host or cells: human PD donor brain, sarkosyl-insoluble 100,000 x g pellet
Nature of the experiment: Micro-radiobinding competition assay against Example-1 [^3H-1] (Table 8). It is filed as binding. Conditions: for Competition at 100 nM (%): 100 nM non-radiolabelled example compound vs Example-1 [^3H-1] ligand; for Competition at 100 nM (%) / Competition at 1 μM (%): human PD brain-derived a-syn aggregates; for Competition at 1 μM (%): 1 μM non-radiolabelled example compound vs Example-1 [^3H-1] ligand; for Ki: mean of Ki values in independent experiments using PD brain-derived homogenates from two different donors. On the procedure: PD brain-derived a-syn aggregates were spotted onto microarray slides. The slides were incubated with the Example-1 [^3H-1] at 6 nM or 20 nM and the example compounds (non-radiolabelled) at 1 μM and 100 nM. In some cases, the non-radiolabelled example compounds were further assessed for a range of different concentrations, varying from 0.05 nM to 2 μM. After incubation, slides were washed and scanned by a real-time autoradiography system (BeaQuant, ai4R). Quantification of the signal was performed by using the Beamage image analysis software (ai4R). […] All measurements were performed with at least two technical replicates. For compounds tested in more than one experiment, the mean of the replicates or K; values in independent experiments is reported.
Results: Example compounds were assessed for their potency to compete with the binding of Example-1 [^3H-1] ligand to PD patient brain-derived a-syn aggregates. Results of the micro-radiobinding competition assay for the example compounds tested are shown in Table 8 as: % competition at 1 μM and 100 nM.

In the case of `O=C1c2cn(-c3ccc(N4CC[C@@H](F)C4)nc3)nc2CN1c1cnsc1` [Example 131], the “Competition at 100 nM (%)” value is reported as 72% and the “Competition at 1 μM (%)” value came out at 98%. `Cc1c2c(nn1-c1ccc(N3CCCC3)nc1)CN(c1cncc(F)n1)C2=O` [Example 146]: the “Competition at 100 nM (%)” value turned out to be 32% and the “Competition at 1 μM (%)” value was 53%.

As to `COc1ccccc1N1Cc2nn(-c3ccc(N4CC[C@@H](F)C4)nc3)cc2C1=O` [Example 62], the “Competition at 100 nM (%)” value is on record as 8% and the “Competition at 1 μM (%)” value came to 27%.

As to `N#Cc1ccc(N2Cc3nn(-c4ccc(N5CC[C@@H](F)C5)nc4)cc3C2=O)cn1` [Example 57], the “Competition at 100 nM (%)” value was found to be 88%. As for `O=C1c2cn(-c3ccc(N4CC[C@H](F)C4)nc3)nc2CN1c1cccc(O)c1` [Example 178], the “Competition at 100 nM (%)” value was 77% and the “Competition at 1 μM (%)” value is 103%. In the same order, the values of `O=C1c2cn(-c3ccc(N4CC[C@H](F)C4)nc3)nc2CN1c1ccccc1O` [Example 176] are 13% and 54%. Turning to `O=C1c2cn(-c3ccc(N4CCCC4)nc3)nc2CN1c1ccnc(F)c1` [Example 41], the “Competition at 100 nM (%)” value was 61% and the “Competition at 1 μM (%)” value was found to be 93%. `CC(C)Oc1ccc(-n2cc3c(n2)CN(c2cncc(F)n2)C3=O)cn1` [Example 158]: the “Competition at 100 nM (%)” value is 19% and the “Competition at 1 μM (%)” value came to 54%. In the case of `Cn1ccc(N2Cc3nn(-c4ccc(N5CC[C@@H](F)C5)nc4)cc3C2=O)n1` [Example 116], the “Competition at 100 nM (%)” value is on record as 71% and the “Competition at 1 μM (%)” value is given as 97%. As to `Cc1c2c(nn1-c1ccc(N3CC[C@@H](F)C3)nc1)CN(c1ccncc1)C2=O` [Example 94], the “Competition at 100 nM (%)” value is on record as 18% and the “Competition at 1 μM (%)” value turned out to be 70%. On to `N#Cc1ccc(N2Cc3nn(-c4ccc(N5CC[C@@H](F)C5)nc4)cc3C2=O)cc1N` [Example 24], for which the “Competition at 1 μM (%)” value is reported as 97%. For `O=C1c2cn(-c3ccc(N4CC[C@@H](F)C4)nc3)nc2CN1c1cncnc1` [Example 14], the “Competition at 100 nM (%)” value was 42% and the “Competition at 1 μM (%)” value amounted to 77%. Consider `Cc1c2c(nn1-c1ccc(N3CC[C@H](F)C3)nc1)CN(c1ccccn1)C2=O` [Example 73], for which the “Competition at 100 nM (%)” value was found to be 33% and the “Competition at 1 μM (%)” value turned out to be 66%. For `Cc1ncccc1N1Cc2nn(-c3ccc(N4CC[C@@H](F)C4)nc3)cc2C1=O` [Example 12], the “Competition at 1 μM (%)” value is on record as 25%. Consider `N#Cc1cc(N2Cc3nn(-c4ccc(N5CC[C@@H](F)C5)nc4)cc3C2=O)ccn1` [Example 114], for which the “Competition at 100 nM (%)” value amounted to 92% and the “Competition at 1 μM (%)” value is listed as 99%. With `O=C1c2cn(-c3ccc(N4CC[C@@H](F)C4)nc3)nc2CN1c1nccs1` [Example 134], the “Competition at 100 nM (%)” value came to 74%. For `O=C1c2cn(-c3ccc(N4CC[C@@H](F)C4)nc3)nc2CN1c1ncco1` [Example 137], the “Competition at 100 nM (%)” value is 35% and the “Competition at 1 μM (%)” value stood at 84%. Regarding `O=C1c2cn(-c3ccc(N4CC[C@@H](F)C4)nc3)nc2CN1c1ccc(O)cn1` [Example 162], the “Competition at 100 nM (%)” value was found to be 92% and the “Competition at 1 μM (%)” value came out at 110%.

On to `O=C1c2cn(-c3ccc(N4CC[C@@H](F)C4)nc3)nc2CN1c1ccns1` [Example 125], for which the “Competition at 100 nM (%)” value amounted to 80% and the “Competition at 1 μM (%)” value came out at 99%. In the case of `COc1cccc(N2Cc3nn(-c4ccc(N5CC[C@H](F)C5)nc4)cc3C2=O)c1` [Example 36], the “Competition at 100 nM (%)” value amounted to 74% and the “Competition at 1 μM (%)” value is reported as 91%. Regarding `Cc1c2c(nn1-c1ccc(N3CC[C@@H](F)C3)nc1)CN(c1cnn(C)c1)C2=O` [Example 96], the “Competition at 100 nM (%)” value stood at 24% and the “Competition at 1 μM (%)” value turned out to be 39%. Consider `O=C1c2cn(-c3ccc(N4CC[C@@H](F)C4)nc3)nc2CN1c1cccc(F)c1` [Example 68], for which the “Competition at 100 nM (%)” value was 63%. Take `COc1ccnc(N2Cc3nn(-c4ccc(N5CC[C@H](F)C5)nc4)cc3C2=O)c1` [Example 77]: the “Competition at 100 nM (%)” value was found to be 95% and the “Competition at 1 μM (%)” value is given as 94%. Turning to `O=C1c2cn(-c3ccc(N4CC[C@H](F)C4)nc3)nc2CN1c1cc(O)ccn1` [Example 170], the “Competition at 100 nM (%)” value came out at 65% and the “Competition at 1 μM (%)” value is listed as 102%.

Regarding `O=C1c2cn(-c3ccc(N4CC[C@@H](F)C4)nc3)nc2CN1c1ccc(O)cc1` [Example 180], the “Competition at 100 nM (%)” value is reported as 77% and the “Competition at 1 μM (%)” value turned out to be 96%. As to `O=C1c2cn(-c3ccc(N4CCCC4)nc3)nc2CN1c1ccc(F)cn1` [Example 115], the “Competition at 100 nM (%)” value is listed as 92% and the “Competition at 1 μM (%)” value is reported as 98%. Turning to `O=C1c2cn(-c3ccc(N4CC[C@H](F)C4)nc3)nc2CN1c1ccc(O)cc1` [Example 179], the “Competition at 100 nM (%)” value is 80% and the “Competition at 1 μM (%)” value is given as 95%.

With `O=C1c2cn(-c3ccc(N4CC[C@H](F)C4)nc3)nc2CN1c1ccccc1` [Example 20], the “Competition at 100 nM (%)” value is given as 48% and the “Competition at 1 μM (%)” value came to 90%. Turning to `N#Cc1cc(N2Cc3nn(-c4ccc(N5CC[C@H](F)C5)nc4)cc3C2=O)ccc1N` [Example 22], the “Competition at 1 μM (%)” value was 72%.

Regarding `Cc1cnccc1N1Cc2nn(-c3ccc(N4CC[C@@H](F)C4)nc3)cc2C1=O` [Example 122], the “Competition at 100 nM (%)” value came to 34% and the “Competition at 1 μM (%)” value was determined as 61%. Take `Cc1cccc(N2Cc3nn(-c4ccc(N5CC[C@@H](F)C5)nc4)cc3C2=O)n1` [Example 75]: the “Competition at 100 nM (%)” value came to 58% and the “Competition at 1 μM (%)” value was 73%. Consider `Cc1c2c(nn1-c1ccc(N3CC[C@H](F)C3)nc1)CN(c1ccncc1)C2=O` [Example 93], for which the “Competition at 100 nM (%)” value came out at 12% and the “Competition at 1 μM (%)” value came out at 47%. `O=C1c2cn(-c3ccc(N4CC[C@H](F)C4)nc3)nc2CN1c1cccc(F)c1` [Example 70]: the “Competition at 100 nM (%)” value is listed as 65%. Consider `COc1ccc(-n2cc3c(n2)CN(c2cncc(F)n2)C3=O)cn1` [Example 147], for which the “Competition at 100 nM (%)” value was determined as 72% and the “Competition at 1 μM (%)” value is on record as 86%. Turning to `Cn1cc(N2Cc3nn(-c4ccc(N5CCC[C@@H](F)C5)nc4)cc3C2=O)cn1` [Example 120], the “Competition at 100 nM (%)” value stood at 45% and the “Competition at 1 μM (%)” value was found to be 83%. Regarding `CC(C)c1ccc(-n2cc3c(n2)CN(c2cncc(F)n2)C3=O)cn1` [Example 153], the “Competition at 100 nM (%)” value was determined as 31% and the “Competition at 1 μM (%)” value stood at 57%.

A word on the Ki: it is a measure of affinity in units of concentration, obtained from inhibition or displacement. A low value points to higher affinity. Take `O=C1c2cn(-c3ccc(N4CC[C@H](F)C4)cc3)nc2CN1c1cccnc1` [Example 87]: the “Competition at 100 nM (%)” value turned out to be 67%, the “Competition at 1 μM (%)” value worked out at 92% and the affinity corresponds to a Ki of 15 nM. As to `COc1ccc(N2Cc3nn(-c4ccc(N5CC[C@H](F)C5)nc4)cc3C2=O)nc1` [Example 28], the “Competition at 100 nM (%)” value came out at 89% and the “Competition at 1 μM (%)” value worked out at 99%. In the same order, the values of `O=C1c2cn(-c3ccc(N4CC[C@H](F)C4)nc3)nc2CN1c1ccccc1F` [Example 71] are 18% and 51%. In the same order, the values of `CC(C)n1cc(N2Cc3nn(-c4ccc(N5CC[C@@H](F)C5)nc4)cc3C2=O)cn1` [Example 117] are 17% and 67%. For `N#Cc1cc(N2Cc3nn(-c4ccc(N5CC[C@H](F)C5)nc4)cc3C2=O)ccn1` [Example 111], in that order: 82% and 97%. Take `N#Cc1ccc(N2Cc3nn(-c4ccc(N5CC[C@@H](F)C5)nc4)cc3C2=O)nc1` [Example 33]: the “Competition at 100 nM (%)” value was 75%. In the case of `O=C1c2cn(-c3ccc(N4CC[C@@H](F)C4)nc3)nc2CN1c1ccncc1O` [Example 174], the “Competition at 100 nM (%)” value is on record as 46% and the “Competition at 1 μM (%)” value stood at 64%. Regarding `CC(C)n1cc(N2Cc3nn(-c4ccc(N5CC[C@H](F)C5)nc4)cc3C2=O)cn1` [Example 119], the “Competition at 100 nM (%)” value was 12% and the “Competition at 1 μM (%)” value worked out at 51%. Regarding `N#Cc1cc(N2Cc3nn(-c4ccc(N5CC[C@@H](F)C5)nc4)cc3C2=O)ccc1N` [Example 23], the “Competition at 1 μM (%)” value was 81%.

`O=C1c2cn(-c3ccc(N4CCC[C@H](F)C4)nc3)nc2CN1c1cccnc1` [Example 43]: the “Competition at 100 nM (%)” value is recorded as 47% and the “Competition at 1 μM (%)” value is 88%. Take `O=C1c2cn(-c3ccc(N4CC[C@H](F)C4)nc3)nc2CN1c1cncs1` [Example 128]: the “Competition at 100 nM (%)” value is recorded as 55% and the “Competition at 1 μM (%)” value came to 85%. Take `O=C1c2cn(-c3ccc(N4CC[C@H](F)C4)cn3)nc2CN1c1cccnc1` [Example 72]: the “Competition at 100 nM (%)” value turned out to be 45% and the “Competition at 1 μM (%)” value stood at 79%. Consider `Cc1ccc(N2Cc3nn(-c4ccc(N5CC[C@@H](F)C5)nc4)cc3C2=O)cn1` [Example 10], for which the “Competition at 100 nM (%)” value amounted to 58%, the “Competition at 1 μM (%)” value stood at 90% and the Ki turned out to be 61 nM. `O=C1c2cn(-c3ccc(N4CC[C@@H](F)C4)nc3)nc2CN1c1ccccc1` [Example 51]: the “Competition at 100 nM (%)” value amounted to 80% and the “Competition at 1 μM (%)” value turned out to be 100%.
